Common to all, as to assay: Herbicidal Effectiveness Test
Holding throughout (type): in vivo
What all share (conditions): tank mix with Roundup PM 11 fl oz/a, Clarity 6 fl oz/a

One assay relates to AMASS Amaranth. The protocol:
(§1) 4 diluted sprayable herbicide tank mixes were prepared using water with an hardness of 1000 ppm, 0.25% v/v of NIS and the adjuvant concentrates of Example 1 and 3-5.
(§2) For comparative purpose, two other diluted herbicide sprayable tank mixes with two different adjuvants, AMS and DPK 50, were prepared.
(§3) The formulations contained, as herbicides, Roundup® PM for an application rate of 11 fl oz/a (803 ml/h) and Clarity® for an application rate of 6 fl oz/a (438 ml/h).
(§4) The formulation were applied on a multispecies system.
(§5) The herbicidal performances were evaluated by awarding scores to the treated plants in comparison to untreated control plants. The evaluation scale ranges from 0% to 100% herbicidal activity. 100% activity means the complete death at least of those parts of the plant that are above ground.
(§6) The results 14 and 28 days after the treatment are reported in the following Table 3 and Table 4 respectively.

Another assay deals with HELSS Sunflower. The protocol: as §1, §2, §3, §4, §5, §6
For another assay, the system named is LIUSS Flax. The protocol: as §1, §2, §3, §4, §5, §6
The next assay has as its system ZEAMX Corn. How it is done: as §1, §2, §3, §4, §5, §6
The mark [1] stands for this setting: 14 days after treatment, adjuvant 8.5 lb/100 gal, 0.25% v/v NIS, water hardness 1000 ppm.
Setting [2] is: 14 days after treatment, adjuvant 17 lb/100 gal, 0.25% v/v NIS, water hardness 1000 ppm.
The mark [3] stands for this setting: 28 days after treatment, adjuvant 8.5 lb/100 gal.
The mark [4] stands for this setting: 28 days after treatment, adjuvant 17 lb/100 gal.

Turning to `N.N.O=S(=O)(O)O` [AMS, ammonium sulfate], the “herbicidal activity, Amaranth” value in the assay on AMASS Amaranth (setting [1]) is recorded as 75.3%; in the assay on AMASS Amaranth (setting [2]), 91%; with AMASS Amaranth (setting [3]), 79.3%; in the assay on AMASS Amaranth (setting [4]), 96%. In addition, the “herbicidal activity, Sunflower” value in the assay on HELSS Sunflower (setting [1]) worked out at 81%; in the assay with HELSS Sunflower (setting [2]), 94.3%; in the assay on HELSS Sunflower (setting [3]), 91.7%; in the assay with HELSS Sunflower (setting [4]), 95%. The “herbicidal activity, Flax” value in the assay on LIUSS Flax (setting [1]) came out at 74.3%; in the assay on LIUSS Flax (setting [2]), 88.3%; in the assay with LIUSS Flax (setting [3]), 76%; in the assay on LIUSS Flax (setting [4]), 90%. Moreover, the “herbicidal activity, Corn” value in the assay with ZEAMX Corn (setting [1]) is given as 95%; in the assay with ZEAMX Corn (setting [2]), 96.3%; in the assay with ZEAMX Corn (setting [3]) it was 95%; in the assay on ZEAMX Corn (setting [4]), 97%.

Values taken from US9420781B1, “Agrochemical adjuvant concentrate for herbicides” (LAMBERTI SpA, priority 2015, dated 2016).
